Active and inactive are the calls of the source. No rule for the calls is given here.
Test system: GENE-TOX genotoxicity assays, various organisms and cells
Test: GENE-TOX mutagenicity studies
Conditions: for call: Assay Type: In vivo carcinogenicity studies
Description: GENE-TOX provides genetic toxicology (mutagenicity) test data from expert peer review of open scientific literature for more than 3,000 chemicals from the United States Environmental Protection Agency (EPA). GENE-TOX was established to select assay systems for evaluation, review data in the scientific literature, and recommend proper testing protocols and evaluation procedures for these systems.
GENE-TOX covers the years 1991 - 1998. It is no longer updated.
This is an archive assay for GENE-TOX mutagenicity studies.

[1] = Species/Cell Type: Fischer rat embryo (RLV/1706) cells, Assay Type: Cell transformation, viral enhanced, Assay Code: CTR-, Evaluation Type: Evaluation A (Pre-1980)
[2] = Species/Cell Type: Nonhuman, Assay Type: Sister-chromatid exchange (SCE) in vitro, Assay Code: SC2+D, Dose Response: With dose response, Evaluation Type: Evaluation B (Post-1980)
[3] = Species/Cell Type: Saccharomyces cerevisiae, Assay Type: Mitotic recombination or gene conversion, Assay Code: YEH-, Evaluation Type: Evaluation A (Pre-1980)
[4] = Species/Cell Type: Bacillus subtilis (H17 vs M45), Assay Type: Rec-assay, spot test, DNA effects (bacterial DNA repair), Assay Code: REW+, Evaluation Type: Evaluation A (Pre-1980)
[5] = Species/Cell Type: Salmonella typhimurium (one or more of the five standard strains: TA98, TA100, TA1535, TA1537, and TA1538), Assay Type: Histidine reverse gene mutation, Ames assay, Assay Code: SAL+, Evaluation Type: Evaluation A (Pre-1980)
[6] = Species/Cell Type: Saccharomyces cerevisiae, Assay Type: Mitotic recombination or gene conversion, Assay Code: YEH+, Evaluation Type: Evaluation A (Pre-1980)

In the case of `O=C(O)C1=NN(c2ccc(S(=O)(=O)O)cc2)C(=O)C1N=Nc1ccc(S(=O)(=O)O)cc1` (stereo not drawn), the mutagenic call (Species/Cell Type: Bacillus subtilis (H17 vs M45T), Assay Type: Rec-assay, spot test, DNA effects (bacterial DNA repair), Assay Code: REXT, Evaluation Type: Evaluation A (Pre-1980)) is reported as “no conclusion”, the mutagenic call [1] is reported as “inactive; negative” and the mutagenic call (Species/Cell Type: Mammalian polychromatic erythrocytes, Assay Type: Micronucleus test, chromosome aberrations, Assay Code: MNTT, Evaluation Type: Evaluation B (Post-1980)) is reported as “no conclusion”. For the same compound, the mutagenic call (Species/Cell Type: Saccharomyces cerevisiae, Assay Type: Mitotic recombination or gene conversion, Assay Code: YEC-, Evaluation Type: Evaluation A (Pre-1980)) was “inactive; negative” and the mutagenic call (Species/Cell Type: Salmonella typhimurium (one or more of the five standard strains: TA98, TA100, TA1535, TA1537, and TA1538), Assay Type: Histidine reverse gene mutation, Ames assay, Assay Code: SAL-, Evaluation Type: Evaluation A (Pre-1980)) was “inactive; negative”.
With `Cn1cnc2c1c(=O)[nH]c(=O)n2C` the mutagenic call (Species/Cell Type: Allium cepa, Assay Type: Chromosome aberrations, Assay Code: ALC-, Evaluation Type: Evaluation A (Pre-1980)) was “inactive; negative”, the mutagenic call (Species/Cell Type: Human lymphocytes, Assay Type: Sister-chromatid exchange (SCE) in vitro, Assay Code: SCL+, Evaluation Type: Evaluation B (Post-1980)) was “active; positive” and the mutagenic call (Species/Cell Type: Human, Assay Type: Sister-chromatid exchange (SCE) in vitro, Assay Code: SC1+, Evaluation Type: Evaluation B (Post-1980)) was “active; positive”. The mutagenic call (Species/Cell Type: Mammalian polychromatic erythrocytes, Assay Type: Micronucleus test, chromosome aberrations, Assay Code: MNT+U, Dose Response: Unconfirmed positive response, Evaluation Type: Evaluation B (Post-1980)) was “active; positive”, the mutagenic call [2] was “active; positive” and the mutagenic call (Species/Cell Type: Nonhuman, Sex: Female, Assay Type: Sister-chromatid exchange (SCE) in vivo, Assay Code: SC3+DF, Dose Response: With dose response, Evaluation Type: Evaluation B (Post-1980)) was “active; positive”. The mutagenic call (Species/Cell Type: Nonhuman, Sex: Male, Assay Type: Sister-chromatid exchange (SCE) in vivo, Assay Code: SC3+DM, Dose Response: With dose response, Evaluation Type: Evaluation B (Post-1980)) was “active; positive”.
`CCCCCCCC(=O)OCC(COC(=O)CCCCCCC)OC(=O)CCCCCCC` was tested, and the mutagenic call (Species/Cell Type: Mouse, Sex: Female, Assay Type: Spot test, gene mutation, Assay Code: MSTT, Evaluation Type: Evaluation A (Pre-1980)) was “no conclusion”.
`O=C(C#Cc1ccc([N+](=O)[O-])o1)NC1CCCCC1` was tested, and the mutagenic call (Species/Cell Type: Neurospora crassa, Assay Type: Forward gene mutation, Assay Code: NEF-, Evaluation Type: Evaluation A (Pre-1980)) was “inactive; negative”.
In the case of `C[C@]12CC[C@@H](O)C[C@@H]1CC[C@@H]1[C@@H]2CC[C@]2(C)C(=O)CC[C@@H]12`, the mutagenic call (Species/Cell Type: Mouse, Sex: Male, Assay Type: Sperm morphology, Assay Code: SPI-, Evaluation Type: Evaluation A (Pre-1980)) is reported as “inactive; negative”.
`Nc1ccc(N=Nc2ccccc2)cc1` was tested, and the mutagenic call (Species/Cell Type: Escherichia coli polA (W3110 vs P3478), Assay Type: Rec-assay, DNA effects (bacterial DNA repair), Assay Code: RE2-, Evaluation Type: Evaluation A (Pre-1980)) was “inactive; negative”, the mutagenic call (Species/Cell Type: Escherichia coli polA (W3119 vs P3478), Assay Type: Rec-assay, DNA effects (bacterial DNA repair), Assay Code: RE1T, Evaluation Type: Evaluation A (Pre-1980)) was “no conclusion” and the mutagenic call [1] was “inactive; negative”. For the same compound, the mutagenic call (Species/Cell Type: Mouse embryo (AKR/ME) cells, Assay Type: Cell transformation, Assay Code: CTK-, Evaluation Type: Evaluation A (Pre-1980)) was “inactive; negative”, the call (Species/Cell Type: Nonhuman, Assay Code: CCG+L, Evaluation Type: Evaluation A (Pre-1980)) was “active; positive” and the mutagenic call (Species/Cell Type: Nonhuman, Assay Type: Sister-chromatid exchange (SCE) in vitro, Assay Code: SC2+, Evaluation Type: Evaluation B (Post-1980)) was “active; positive”. The mutagenic call (Species/Cell Type: Nonhuman, Assay Type: Sister-chromatid exchange (SCE) in vivo, Assay Code: SC3+, Evaluation Type: Evaluation B (Post-1980)) was “active; positive”, the mutagenic call (Species/Cell Type: Rat primary hepatocytes, Assay Type: Unscheduled DNA synthesis (UDS) in vitro, DNA effects, Assay Code: UDP+, Evaluation Type: Evaluation A (Pre-1980)) was “active; positive” and the mutagenic call [3] was “inactive; negative”. The mutagenic call (Species/Cell Type: Salmonella typhimurium (one or more of the five standard strains: TA98, TA100, TA1535, TA1537, and TA1538), Assay Type: Histidine reverse gene mutation, Ames assay, Assay Code: SAL+*, Activation: With metabolic activation, Evaluation Type: Evaluation A (Pre-1980)) was “active; positive”, the mutagenic call (Species/Cell Type: Salmonella typhimurium, Assay Type: Forward and reverse gene mutation, host-mediated assay, Assay Code: HMA+, Evaluation Type: Evaluation A (Pre-1980)) was “active; positive” and the mutagenic call (Species/Cell Type: Syrian hamster embryo (SHE) cells, Assay Type: Cell transformation, clonal assay, Assay Code: CTC+, Evaluation Type: Evaluation A (Pre-1980)) was “active; positive”.
`Cl` was tested, and the mutagenic call [4] was “active; positive”, the mutagenic call (Species/Cell Type: Bacillus subtilis (H17 vs M45), Assay Type: Rec-assay, spot test, DNA effects (bacterial DNA repair), Assay Code: REW-, Evaluation Type: Evaluation A (Pre-1980)) was “inactive; negative” and the mutagenic call (Species/Cell Type: Syrian hamster embryo (SA7/SHE) cells, Assay Type: Cell transformation, viral enhanced, Assay Code: CT7-, Evaluation Type: Evaluation A (Pre-1980)) was “inactive; negative”.
In the case of `CN(N=O)c1ccccc1`, the mutagenic call (Species/Cell Type: Chinese hamster lung (V79) cells, Assay Type: Forward gene mutation at the HPRT or ouabain locus, Assay Code: V79-*, Activation: With metabolic activation, Evaluation Type: Evaluation A (Pre-1980)) is reported as “inactive; negative” and the mutagenic call (Species/Cell Type: Vicia faba, Assay Type: Chromosome aberrations, Assay Code: VIC+, Evaluation Type: Evaluation A (Pre-1980)) is reported as “active; positive”.
`NCCSSCCN` was tested, and the mutagenic call (Species/Cell Type: Human lymphocytes, Assay Type: Sister-chromatid exchange (SCE) in vitro, Assay Code: SCLT, Evaluation Type: Evaluation B (Post-1980)) was “no conclusion”, the mutagenic call (Species/Cell Type: Human, Assay Type: Sister-chromatid exchange (SCE) in vitro, Assay Code: SC1T, Evaluation Type: Evaluation B (Post-1980)) was “no conclusion” and the mutagenic call [2] was “active; positive”.
In the case of `COc1cccc(OC)c1C(=O)N[C@@H]1C(=O)N2[C@@H]1SC(C)(C)[C@@H]2C(=O)O`, the mutagenic call (Species/Cell Type: Escherichia coli polA (W3119 vs P3478), Assay Type: Rec-assay, DNA effects (bacterial DNA repair), Assay Code: RE1-, Evaluation Type: Evaluation A (Pre-1980)) is reported as “inactive; negative”.
`O=S(=O)(O)c1ccc(N=C2C=CC(=C(c3ccc(Nc4ccc(S(=O)(=O)O)cc4)cc3)c3ccc(Nc4ccc(S(=O)(=O)O)cc4)cc3)C=C2)cc1` was tested, and the mutagenic call (Species/Cell Type: Bacillus subtilis (H17 vs M45), Assay Type: Rec-assay, spot test, DNA effects (bacterial DNA repair), Assay Code: REWT, Evaluation Type: Evaluation A (Pre-1980)) was “no conclusion”.
`Cc1cc(O)c2c(c1O)C(=O)c1c(O)ccc(O)c1C2=O` was tested, and the mutagenic call [5] was “active; positive”.
With `NC[C@H]1O[C@H](O[C@H]2[C@H](O)[C@@H](O[C@H]3O[C@H](CO)[C@@H](O)[C@H](N)[C@H]3O)[C@H](N)C[C@@H]2N)[C@H](N)C[C@@H]1O` the mutagenic call [3] was “inactive; negative”.
In the case of `OC1c2c(c3cc4ccccc4cc3c3ccccc23)C=C[C@H]1O` (stereo partly drawn), the mutagenic call [2] is reported as “active; positive”.
For `CN(N=O)C(=O)Oc1ccccc1Cl`, the mutagenic call (Species/Cell Type: Bacillus subtilis (H17 vs M45T), Assay Type: Rec-assay, spot test, DNA effects (bacterial DNA repair), Assay Code: REX+, Evaluation Type: Evaluation A (Pre-1980)) was “active; positive” and the mutagenic call (Species/Cell Type: Escherichia coli WP2, Assay Type: Tryptophan reverse gene mutation, Assay Code: WP2+, Evaluation Type: Evaluation A (Pre-1980)) was “active; positive”.
For `C[C@@]1(O)C=Cc2cc3c(ccc4ccccc43)c3c2[C@@]1(O)CC3`, the mutagenic call (Species/Cell Type: Chinese hamster lung (V79) cells, Assay Type: Forward gene mutation at the HPRT or ouabain locus, Assay Code: V79-, Evaluation Type: Evaluation A (Pre-1980)) was “inactive; negative”, the call (Species/Cell Type: Nonhuman, Assay Code: CCGT, Evaluation Type: Evaluation A (Pre-1980)) was “no conclusion” and the mutagenic call (Species/Cell Type: Salmonella typhimurium (one or more of the five standard strains: TA98, TA100, TA1535, TA1537, and TA1538), Assay Type: Histidine reverse gene mutation, Ames assay, Assay Code: SALT, Evaluation Type: Evaluation A (Pre-1980)) was “no conclusion”.
`CCCCCCCC(=O)N(C)N=O` was tested, and the mutagenic call [6] was “active; positive”.
In the case of `CCC(=O)ONC(=O)c1ccc2ccccc2c1`, the mutagenic call [2] is reported as “active; positive”.
With `CN(C)C(=S)SSC(=S)N(C)C` the mutagenic call [4] was “active; positive” and the mutagenic call (Species/Cell Type: Mammalian polychromatic erythrocytes, Assay Type: Micronucleus test, chromosome aberrations, Assay Code: MNT+, Evaluation Type: Evaluation A (Pre-1980)) was “active; positive”.
In the case of `N#CC(Cl)Cl`, the mutagenic call [6] is reported as “active; positive” and the mutagenic call [5] is reported as “active; positive”.
In the case of `CC/C(=C(\c1ccccc1)c1ccc(OCCN(C)C)cc1)c1ccccc1`, the mutagenic call (Species/Cell Type: Human, Sex: Male, Assay Type: Sperm morphology, Assay Code: SPHT, Evaluation Type: Evaluation A (Pre-1980)) is reported as “no conclusion”.
`O=C(NOS(=O)(=O)O)c1ccc2ccccc2c1` was tested, and the mutagenic call [2] was “active; positive”.

From PubChem BioAssay AID1259408 (Genetic Toxicology Data Bank (GENE-TOX), 2018)
